Experimental data taken from patent US11167133B2, “Intratumoral modulation therapy” (LONDON HEALTH SCIENCES CENTRE RESEARCH INC., priority 2015, dated 2021).

Experiments:
[1] = tested on: primary patient GBM cells; assay: Annexin V / propidium iodide flow cytometry of apoptotic and dead cells; format: cell-based, human; settings: 72 h; for combined fraction of apoptotic (annexin+) and dead (annexin+ and PI+) GBM cells: mean±SD, cells from 3 patients
Text: (§1) This study was approved by the Research Ethics Board at the University of Western Ontario (Approval #17290). GBM specimens were obtained at the time of operative resection and placed immediately into phosphate-buffered saline (PBS) with 0.5% fetal bovine serum (FBS; Life Technologies, Burlington, ON, Canada). The tissue was washed, digested and filtered through a 100-μm cell strainer. Samples were then centrifuged and resuspended in Dulbecco's modified Eagle's medium (DMEM; Wisent Bioproducts, St. Bruno, PQ, Canada) supplemented with 10% FBS, 1% non-essential amino acids and 1% penicillin/streptomycin (Life Technologies) before plating to a 35-mm dish for 30 min to allow blood cells to separate. The upper cell suspension was then transferred to two wells of a 24-well plate, freshly pre-coated with 10 μg/ml poly-L-lysine (Trevigen Inc., Gaithersburg, Md., USA) and incubated at 37° C. with 5% CO2. Cultures were passaged at approximately 80% confluence and split 1:2 using 0.25% trypsin with 0.53 mM ethylenediaminetetraacetic acid (EDTA; Wisent). The medium was changed twice per week. All assays were conducted using GBM cells from cultures at passages 4 through 12.
GBM cells (2×10^5 cells in 2 ml maintenance DMEM) were transferred to the 35 mm wells in standard 6-well plates and allowed to grow to ˜70% confluence before treatment. A clinical grade, platinum-based reference strip electrode (AD-Tech, Racine, Wis., USA) around the periphery and a stimulating electrode (Medtronic Ltd., Brampton, ON, Canada) in the centre of the well. The electrodes were connected to a waveform generator set to produce monophasic, square-wave pulses of 4 volts, with pulse width of 90 μsec and frequency of 130 Hz. This setting is in the range of that commonly used in clinical neuromodulation treatment for symptoms of movement disorders, such as Parkinson's disease (11). Control wells (i.e. sham-treated) were fitted with electrodes but no current was delivered. Treatment durations between 24-96 h were used to allow adequate time for antitumor effect while avoiding the need for medium change once IMT was initiated. Thus, all intact GBM cells, adherent and floating, contributed to the viability measures described below. GBM cells treated with chemotherapy were plated with DMEM containing temozolomide (50 μM; Sigma Aldrich) in 35 mm wells fitted with the IMT apparatus and received 72 h of concomitant IMT or sham conditions. The 50 μM temozolomide concentration reflects clinically relevant levels corresponding to the in vivo plasma concentration of 150 mg/m2 in the adjuvant phase of GBM treatment (24).
An Annexin V Apoptosis Detection Kit with propidium iodide (PI; BioLegend, San Diego, Calif., USA) was used for identification of apoptotic and dead cells, as per the manufacturer's instructions. Cell fractions were analyzed using a Becton Dickinson LSR II SORP flow cytometer running FACSDiva software (BD Biosciences, Mississauga, ON, Canada). Cells were first gated on forward scatter (FSC-) versus side scatter (SSC-) characteristics before excluding doublets using consecutive gating FSC-Area versus FSC-Width and SSC-Area versus SSC-Width plots. The populations of annexin V+/PI−, annexin V+/PI+, annexin V−/PI+ and annexin V−/PI− were then calculated with quadrant gates. Approximately 30,000 single cells were acquired per sample at a maximum event rate of 5,000 events per second. Data were analyzed using FlowJo v 9.6.3 (TreeStar, Inc., Ashland, Oreg., USA).

[2] = tested on: primary patient GBM cells; assay: MTT cell viability assay; format: cell-based, human; settings: 72 h, mean±SD, 3 patients
Text: as §1, with “Cultures were passaged at approximately 80% confluence and split 1:2 using 0.25% trypsin with 0.53 mM ethylenediaminetetraacetic acid (EDTA; Wisent). The medium was changed twice per week. All assays were conducted using GBM cells from cultures at passages 4 through 12.” left out
Primary human patient GBM cells (1×10^5 cells in 2 ml maintenance DMEM) were seeded into one 35 mm well equipped with the IMT system and allowed to grow to ˜70% confluence. […] In the IMT-siRNA conditions, IMT was initiated at the time of transfection and maintained for the entire 48 h, after which the extent of target knockdown and GBM cell viability were assessed.
Cell viability was evaluated using the 3-(4,5-dimethylthiazol-2-yl)-2,5-diphenyltetrazolium (MTT) spectral analysis (Sigma Aldrich). […]

[3] = temozolomide 50 μM combined with IMT (4 V, 130 Hz)
[4] = temozolomide 50 μM, with concomitant IMT (4 V, 130 Hz), representative scatterplot
[5] = temozolomide 50 μM, without IMT, representative scatterplot

## Cn1nnc2c(C(N)=O)ncn2c1=O [temozolomide]
[1]; single-modality temozolomide 50 μM
  combined fraction of apoptotic (annexin+) and dead (annexin+ and PI+) GBM cells: 16.9±7.4%
[1]; [3]
  combined fraction of apoptotic (annexin+) and dead (annexin+ and PI+) GBM cells: 52.4±21.8%
[1]; [4]
  dead cells (annexin and PI-positive), FIG. 4 scatterplot: 16%
  live cells, FIG. 4 scatterplot: 25.2%
[1]; [5]
  apoptotic cells (annexin-positive), FIG. 4 scatterplot: 14.1%
  dead cells (annexin and PI-positive), FIG. 4 scatterplot: 9.4%
  live cells, FIG. 4 scatterplot: 76.1%
[2]; Homo sapiens, temozolomide 50 μM alone, read-out: viability relative to untreated cells (MTT)
  viability at 50 µM: 69.7 ± 11.8%
[2]; [3]
  viability relative to untreated cells (MTT): 29.1±3.2%
